Assay results taken from ChEMBL document CHEMBL5352460, “Antibacterial activity evaluation of pleuromutilin derivatives with 4(3H)-quinazolinone scaffold against methicillin-resistant Staphylococcusaureus” (Eur J Med Chem, 2023).
Values after ≈ are worked out from the molar mass of the structure shown.

Key:
[1] = test system: Staphylococcus aureus; test: microbe, parasite or virus in culture; format: functional; conditions: time 20 hrs
[2] = Antibacterial activity against Salmonella pullorum assessed as inhibition of bacterial growth incubated for 20 hrs by absorbance based analysis; format: functional, Salmonella enterica subsp. enterica serovar Pullorum; conditions: Salmonella enterica
[3] = test system: Staphylococcus epidermidis; test: Antibacterial activity against methicillin-resistant Staphylococcus epidermidis assessed as inhibition of bacterial growth incubated for 20 hrs by absorbance based analysis; format: functional
[4] = test system: Staphylococcus aureus; test: microbe, parasite or virus in culture; format: functional; conditions: ATCC29213, time 20 hrs
[5] = test system: Staphylococcus aureus; test: microbe, parasite or virus in culture; format: functional; conditions: ATCC25923, time 20 hrs
[6] = test system: Escherichia coli; test: microbe, parasite or virus in culture; format: functional; conditions: ATCC25922, time 20 hrs
[7] = Metabolic stability in rat liver microsomes assessed as parent compound remaining incubated for 45 mins in the presence of NADPH by LC/MS analysis; format: ADME, Microsome; conditions: read-out: Stability
[8] = Metabolic stability in rat liver microsomes assessed as half-life incubated for 45 mins in the presence of NADPH by LC/MS analysis; format: ADME, Microsome
[9] = Metabolic stability in rat liver microsomes assessed as intrinsic clearance incubated for 45 mins in the presence of NADPH by LC/MS analysis; format: ADME, Microsome; conditions: read-out: CLH

Row | SMILES | MIC [1] [µg/mL] | MIC [2] [µg/mL] | MIC [3] [µg/mL] | MIC [4] [µg/mL] | MIC [5] [µg/mL] | MIC [6] [µg/mL] | remaining at 0.75 h [7] [%] | half-life [8] [min] | microsomal CLint [9] [µL/min/mg]
1 | C=C[C@]1(C)C[C@@H](OC(=O)CSc2nc3cc(Br)ccc3c(=O)[nH]2)[C@]2(C)[C@H](C)CC[C@]3(CCC(=O)[C@H]32)[C@@H](C)[C@@H]1O | 0.5 (≈ 0.81 µM) | > 64 | 4 (≈ 6.48 µM) | 0.25 (≈ 0.405 µM) | 0.25 (≈ 0.405 µM) | > 64 |  |  | 
2 | C=C[C@]1(C)C[C@@H](OC(=O)CSc2nc3c(Br)cccc3c(=O)[nH]2)[C@]2(C)[C@H](C)CC[C@]3(CCC(=O)[C@H]32)[C@@H](C)[C@@H]1O | 0.25 (≈ 0.405 µM) | > 64 | 2 (≈ 3.24 µM) | 0.5 (≈ 0.81 µM) | 0.25 (≈ 0.405 µM) | > 64 |  |  | 
3 | O=C(c1ccc(F)cc1)C1CCN(CCn2c(=O)[nH]c3ccccc3c2=O)CC1 [KETANSERIN] |  |  |  |  |  |  | 33.5 | 27.9 | 88.9
4 | C=C[C@]1(C)C[C@@H](OC(=O)CSc2nc3cccc(OC)c3c(=O)[nH]2)[C@]2(C)[C@H](C)CC[C@]3(CCC(=O)[C@H]32)[C@@H](C)[C@@H]1O | 0.25 (≈ 0.44 µM) | > 64 | 4 (≈ 7.03 µM) | 0.25 (≈ 0.44 µM) | 0.25 (≈ 0.44 µM) | > 64 |  |  | 
5 | C=C[C@]1(C)C[C@@H](OC(=O)CSc2nc3ccccc3c(=O)n2C)[C@]2(C)[C@H](C)CC[C@]3(CCC(=O)[C@H]32)[C@@H](C)[C@@H]1O | 0.25 (≈ 0.452 µM) | > 64 | 0.5 (≈ 0.905 µM) | 0.063 (≈ 0.114 µM) | 0.125 (≈ 0.226 µM) | 64 (≈ 116 µM) |  |  | 
6 | C=C[C@]1(C)C[C@@H](OC(=O)CSc2nc3ccc(F)cc3c(=O)[nH]2)[C@]2(C)[C@H](C)CC[C@]3(CCC(=O)[C@H]32)[C@@H](C)[C@@H]1O | 0.5 (≈ 0.898 µM) | > 64 | 2 (≈ 3.59 µM) | 0.25 (≈ 0.449 µM) | 0.25 (≈ 0.449 µM) | > 64 |  |  | 
7 | C=C[C@]1(C)C[C@@H](OC(=O)CSc2nc3ccccc3c(=O)n2C2CCCCC2)[C@]2(C)[C@H](C)CC[C@]3(CCC(=O)[C@H]32)[C@@H](C)[C@@H]1O | > 64 | > 64 | > 64 | > 64 | > 64 | > 64 |  |  | 
8 | C=C[C@]1(C)C[C@@H](OC(=O)CSc2nc3ccc(Cl)cc3c(=O)[nH]2)[C@]2(C)[C@H](C)CC[C@]3(CCC(=O)[C@H]32)[C@@H](C)[C@@H]1O | 0.25 (≈ 0.436 µM) | > 64 | 1 (≈ 1.74 µM) | 0.25 (≈ 0.436 µM) | 0.25 (≈ 0.436 µM) | > 64 |  |  | 
9 | C=C[C@]1(C)C[C@@H](OC(=O)CSc2nc3cc(Cl)ccc3c(=O)[nH]2)[C@]2(C)[C@H](C)CC[C@]3(CCC(=O)[C@H]32)[C@@H](C)[C@@H]1O | 0.5 (≈ 0.872 µM) | > 64 | 1 (≈ 1.74 µM) | 0.25 (≈ 0.436 µM) | 0.5 (≈ 0.872 µM) | > 64 |  |  | 
10 | C=C[C@]1(C)C[C@@H](OC(=O)CSc2nc3cc(F)ccc3c(=O)[nH]2)[C@]2(C)[C@H](C)CC[C@]3(CCC(=O)[C@H]32)[C@@H](C)[C@@H]1O | 0.5 (≈ 0.898 µM) | > 64 | 4 (≈ 7.19 µM) | 0.25 (≈ 0.449 µM) | 0.5 (≈ 0.898 µM) | > 64 |  |  | 
11 | C=C[C@]1(C)C[C@@H](OC(=O)CSc2nc3ncccc3c(=O)[nH]2)[C@]2(C)[C@H](C)CC[C@]3(CCC(=O)[C@H]32)[C@@H](C)[C@@H]1O | 2 (≈ 3.71 µM) | > 64 | 8 (≈ 14.8 µM) | 2 (≈ 3.71 µM) | 4 (≈ 7.41 µM) | > 64 |  |  | 
12 | C=C[C@]1(C)C[C@@H](OC(=O)CN2CCN(C(=O)c3nc4ccccc4c(=O)[nH]3)CC2)[C@]2(C)[C@H](C)CC[C@]3(CCC(=O)[C@H]32)[C@@H](C)[C@@H]1O | 0.5 (≈ 0.808 µM) | > 64 | 2 (≈ 3.23 µM) | 0.5 (≈ 0.808 µM) | 1 (≈ 1.62 µM) | > 64 |  |  | 
13 | C=C[C@]1(C)C[C@@H](OC(=O)CSc2nc3cccc(F)c3c(=O)[nH]2)[C@]2(C)[C@H](C)CC[C@]3(CCC(=O)[C@H]32)[C@@H](C)[C@@H]1O | 0.25 (≈ 0.449 µM) | > 64 | 2 (≈ 3.59 µM) | 0.25 (≈ 0.449 µM) | 0.25 (≈ 0.449 µM) | > 64 |  |  | 
14 | C=C[C@]1(C)C[C@@H](OC(=O)CSc2nc3cccc(Br)c3c(=O)n2-c2ccccc2)[C@]2(C)[C@H](C)CC[C@]3(CCC(=O)[C@H]32)[C@@H](C)[C@@H]1O | > 64 | > 64 | > 64 | > 64 | > 64 | > 64 |  |  | 
15 | C=C[C@]1(C)C[C@@H](OC(=O)CSc2nc3cc(C)ccc3c(=O)[nH]2)[C@]2(C)[C@H](C)CC[C@]3(CCC(=O)[C@H]32)[C@@H](C)[C@@H]1O | 0.5 (≈ 0.905 µM) | > 64 | 2 (≈ 3.62 µM) | 0.5 (≈ 0.905 µM) | 0.25 (≈ 0.452 µM) | > 64 |  |  | 
16 | C=C[C@]1(C)C[C@@H](OC(=O)CSc2nc3ccccc3c(=O)[nH]2)[C@]2(C)[C@H](C)CC[C@]3(CCC(=O)[C@H]32)[C@@H](C)[C@@H]1O | 0.25 (≈ 0.464 µM) | > 64 | 1 (≈ 1.86 µM) | 0.25 (≈ 0.464 µM) | 0.25 (≈ 0.464 µM) | > 64 |  |  | 
17 | C=C[C@]1(C)C[C@@H](OC(=O)CSc2nc3ccc(Br)cc3c(=O)[nH]2)[C@]2(C)[C@H](C)CC[C@]3(CCC(=O)[C@H]32)[C@@H](C)[C@@H]1O | 0.25 (≈ 0.405 µM) | > 64 | 2 (≈ 3.24 µM) | 0.25 (≈ 0.405 µM) | 0.25 (≈ 0.405 µM) | > 64 |  |  | 
18 | C=C[C@]1(C)C[C@@H](OC(=O)CN2CCN(Cc3nc4ccccc4c(=O)[nH]3)CC2)[C@]2(C)[C@H](C)CC[C@]3(CCC(=O)[C@H]32)[C@@H](C)[C@@H]1O | 2 (≈ 3.31 µM) | > 64 | 2 (≈ 3.31 µM) | 1 (≈ 1.65 µM) | 1 (≈ 1.65 µM) | > 64 |  |  | 
19 | C=C[C@]1(C)C[C@@H](OC(=O)CSc2nc3c(Cl)cccc3c(=O)[nH]2)[C@]2(C)[C@H](C)CC[C@]3(CCC(=O)[C@H]32)[C@@H](C)[C@@H]1O | 0.125 (≈ 0.218 µM) | > 64 | 1 (≈ 1.74 µM) | 0.125 (≈ 0.218 µM) | 0.125 (≈ 0.218 µM) | > 64 |  |  | 
20 | C=C[C@]1(C)C[C@@H](OC(=O)CSc2nc3ccc(OC)cc3c(=O)[nH]2)[C@]2(C)[C@H](C)CC[C@]3(CCC(=O)[C@H]32)[C@@H](C)[C@@H]1O | 0.25 (≈ 0.44 µM) | > 64 | 4 (≈ 7.03 µM) | 0.125 (≈ 0.22 µM) | 0.25 (≈ 0.44 µM) | > 64 |  |  | 
21 | C=C[C@]1(C)C[C@@H](OC(=O)CSc2nc3cccc([N+](=O)[O-])c3c(=O)[nH]2)[C@]2(C)[C@H](C)CC[C@]3(CCC(=O)[C@H]32)[C@@H](C)[C@@H]1O | 0.25 (≈ 0.428 µM) | > 64 | 4 (≈ 6.85 µM) | 0.25 (≈ 0.428 µM) | 0.25 (≈ 0.428 µM) | > 64 |  |  | 
22 | C=C[C@]1(C)C[C@@H](OC(=O)CSc2nc3sccc3c(=O)[nH]2)[C@]2(C)[C@H](C)CC[C@]3(CCC(=O)[C@H]32)[C@@H](C)[C@@H]1O | 0.25 (≈ 0.459 µM) | > 64 | 1 (≈ 1.84 µM) | 0.25 (≈ 0.459 µM) | 0.25 (≈ 0.459 µM) | 64 (≈ 117 µM) |  |  | 
23 | C=C[C@]1(C)C[C@@H](OC(=O)CSc2nc3ccccc3c(=O)n2CC)[C@]2(C)[C@H](C)CC[C@]3(CCC(=O)[C@H]32)[C@@H](C)[C@@H]1O | 0.25 (≈ 0.441 µM) | > 64 | 2 (≈ 3.53 µM) | 0.125 (≈ 0.221 µM) | 0.125 (≈ 0.221 µM) | > 64 |  |  | 
24 | C=C[C@]1(C)C[C@@H](OC(=O)CSc2nc3ccccc3c(=O)n2-c2ccccc2)[C@]2(C)[C@H](C)CC[C@]3(CCC(=O)[C@H]32)[C@@H](C)[C@@H]1O | 32 (≈ 52 µM) | > 64 | 64 (≈ 104 µM) | 32 (≈ 52 µM) | 32 (≈ 52 µM) | > 64 |  |  | 
25 | C=C[C@]1(C)C[C@@H](OC(=O)CSc2nc3c(C)cccc3c(=O)[nH]2)[C@]2(C)[C@H](C)CC[C@]3(CCC(=O)[C@H]32)[C@@H](C)[C@@H]1O | 0.125 (≈ 0.226 µM) | > 64 | 1 (≈ 1.81 µM) | 0.125 (≈ 0.226 µM) | 0.25 (≈ 0.452 µM) | > 64 |  |  | 
26 | C=C[C@]1(C)C[C@@H](OC(=O)CSc2nc3cc(OC)ccc3c(=O)[nH]2)[C@]2(C)[C@H](C)CC[C@]3(CCC(=O)[C@H]32)[C@@H](C)[C@@H]1O | 0.25 (≈ 0.44 µM) | > 64 | 1 (≈ 1.76 µM) | 0.25 (≈ 0.44 µM) | 0.25 (≈ 0.44 µM) | > 64 |  |  | 
27 | C=C[C@]1(C)C[C@@H](OC(=O)CSc2nc3ccc(C)cc3c(=O)[nH]2)[C@]2(C)[C@H](C)CC[C@]3(CCC(=O)[C@H]32)[C@@H](C)[C@@H]1O | 0.5 (≈ 0.905 µM) | > 64 | 2 (≈ 3.62 µM) | 0.25 (≈ 0.452 µM) | 0.5 (≈ 0.905 µM) | > 64 |  |  | 
28 | C=C[C@]1(C)C[C@@H](OC(=O)CSc2nc3cccc(C)c3c(=O)[nH]2)[C@]2(C)[C@H](C)CC[C@]3(CCC(=O)[C@H]32)[C@@H](C)[C@@H]1O | 0.25 (≈ 0.452 µM) | > 64 | 2 (≈ 3.62 µM) | 0.25 (≈ 0.452 µM) | 0.25 (≈ 0.452 µM) | > 64 |  |  | 
29 | C=C[C@]1(C)C[C@@H](OC(=O)CSc2nc3c(c(=O)[nH]2)CCC3)[C@]2(C)[C@H](C)CC[C@]3(CCC(=O)[C@H]32)[C@@H](C)[C@@H]1O | 0.25 (≈ 0.473 µM) | > 64 | 1 (≈ 1.89 µM) | 0.25 (≈ 0.473 µM) | 0.25 (≈ 0.473 µM) | > 64 |  |  | 
